Experimental data taken from US6583265B1, “Cyclosporins” (C-Chem AG, priority 1998, dated 2003).
Converted amounts (≈) assume the structure as drawn. Where two headings read alike, the source gives them in different places. Peptide text beside a SMILES is read from it.

Key:
HIV = type: cell-based
Excerpt: The inhibitory effect of test compounds on the HIV-induced cytopathic effect on the MT4 T cell line as described by R. Pauwels in J. Virol. Methods, 1988, Vol. 20, pp 309-321 was used.

cyclophilin = cyclophilin (Homo sapiens, UniProt P62937); test: Test for cyclophilin binding (Fliri); conditions: ratio to cyclosporin A
Chain of cyclophilin (P62937 whole entry): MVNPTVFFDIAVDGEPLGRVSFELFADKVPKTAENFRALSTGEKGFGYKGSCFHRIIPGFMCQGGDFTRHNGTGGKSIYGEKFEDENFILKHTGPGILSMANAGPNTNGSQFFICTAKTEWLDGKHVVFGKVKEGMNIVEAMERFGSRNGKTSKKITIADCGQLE
Excerpt: To measure the affinity and inhibition of test compounds for cyclophilin, the test described by H. Fliri in “Antibiotics and Antiviral compounds”, 1993, Verlag Chemie, K.Krohn, H. A. Kirst, and H. Maag, eds., p 229-240 was used.

[1] = Antiinflammatory activity, adjuvent arthritis test (Pearson); type: in vivo; conditions: oral, solutions in olive oil and tween 80
Description: The antiinflammatory activity of test compounds was determined by the adjuvent arthritis test described by Pearson, “Arthr. Rheum”, 1959, Vol. 2., 440. Test compounds were administered orally as solutions in olive oil and tween 80.

[2] = tested on: T. gondii tachyzoites, strain RH; type: cell-based, Toxoplasma gondii; conditions: 72 h
Description: Using microliter plates, T. gondii tachyzoites, strain RH were co-incubated with fibroblasts (MCR5, Bio-Merieux) for 72 hrs in the presence and absence of test compounds T. gondii was quantified using an ELISA. The activities of the test compounds are as follows: […]

[3] = target: recombinant human cyclophilin 18 (Homo sapiens, UniProt P62937); test: Test for inhibition of cyclophilin (chymotrypsin-coupled hydrolysis of Succ-Ala-Phe-Pro-Phe-4-nitroanilide); type: biochemical; conditions: recombinant human cyclophilin 18, 10 °C, HEPES buffer, 5 minutes preincubation, substrate 50 μM
Chain of recombinant human cyclophilin 18 (P62937 whole entry): as above
Description: The test described by G. Fischer et al., Biomed. Biochim. Acta, Vol. 43, 1101-1111 (1984) was used. Specifically, 5 μL of a 1 μM solution of recombinant human cyclophilin 18 was dissolved, at 10,0±0.3° C. in 1250 μL HEPES buffer; α-chymotrypsin was added to give a final concentration of 30 μM. […] After 5 minutes preincubation, Succ-Ala-Phe-Pro-Phe-4-nitroanilide (SEQ ID No. 1) was added to give a final concentration of 50 μM. The hydrolysis of the substrate was measured spectrophotometrically at […].

SMILES | IC50 (HIV) [µg/mL] | Relative IC50, i.e. IC50 (cyclosporin A)/IC50 (test compound) (cyclophilin) | ED50, dose effective in reducing the joint swelling by 50% [1] [mg/kg] | IC50 (HIV; HIV-induced cytopathic effect on MT4 T cell line) [µg/mL] | Activity against T. gondii (IC50) [2] [µg/mL] | IC50 [3] [nM]
C/C=C/C[C@@H](C)[C@@H](O)[C@H]1C(=O)N[C@@H](CC)C(=O)N(C)C(Sc2ccccn2)C(=O)N(C)[C@@H](CC(C)C)C(=O)N[C@@H](C(C)C)C(=O)N(C)[C@@H](CC(C)C)C(=O)N[C@@H](C)C(=O)N[C@H](CO)C(=O)N(C)[C@@H](CC(C)C)C(=O)N(C)[C@@H](CC(C)C)C(=O)N(C)[C@@H](C(C)C)C(=O)N1C (some centres unmarked) [Example 7, 3-(Pyridyl-2-thio)-8-(D)-serine-cyclosporin] (HELM PEPTIDE1{[C/C=C/C[C@@H](C)[C@@H](O)[C@@H](C(=O)[*:2])N(C)[*:1]].[Abu].[CN(C(Sc1ccccn1)C(=O)[*:2])[*:1]].[meL].V.[meL].A.[dS].[meL].[meL].[meV]}$PEPTIDE1,PEPTIDE1,1:R1-11:R2$$$V2.0) | 1 (≈ 0.753 µM) | 0.2 | 25 | – | – | –
C/C=C/C[C@@H](C)[C@@H](O)[C@H]1C(=O)N[C@@H](CC)C(=O)N(C)C(SCCN(C)C)C(=O)N(C)[C@@H](CC(C)C)C(=O)N[C@@H](C(C)C)C(=O)N(C)[C@@H](CC(C)C)C(=O)N[C@@H](C)C(=O)N[C@H](C)C(=O)N(C)[C@@H](CC(C)C)C(=O)N(C)[C@@H](CC(C)C)C(=O)N(C)[C@@H](C(C)C)C(=O)N1C (some centres unmarked) [Example 9, 3-(2-dimethylaminoethylthio)-cyclosporin] | – | – | – | 0.03 (≈ 0.023 µM) | 0.1 | –
C/C=C/C[C@@H](C)[C@@H](OC(C)=O)[C@H]1C(=O)N[C@@H](CC)C(=O)N(C)C(OC(C)=O)C(=O)N(C)[C@@H](CC(C)C)C(=O)N[C@@H](C(C)C)C(=O)N(C)[C@@H](CC(C)C)C(=O)N[C@@H](C)C(=O)N[C@H](C)C(=O)N(C)[C@@H](CC(C)C)C(=O)N(C)[C@@H](CC(C)C)C(=O)N(C)[C@@H](C(C)C)C(=O)N1C (some centres unmarked) [Example 12, 3′,3-Diacetoxy-cyclosporin] | 0.15 (≈ 0.115 µM) | 1.5 | 15 | – | – | –
C/C=C/C[C@@H](C)[C@@H](O)[C@H]1C(=O)N[C@@H](CC)C(=O)N(C)C(OC(C)=O)C(=O)N(C)[C@@H](CC(C)C)C(=O)N[C@@H](C(C)C)C(=O)N(C)[C@@H](CC(C)C)C(=O)N[C@@H](C)C(=O)N[C@H](C)C(=O)N(C)[C@@H](CC(C)C)C(=O)N(C)[C@@H](CC(C)C)C(=O)N(C)[C@@H](C(C)C)C(=O)N1C (some centres unmarked) [Example 13, 3-Acetoxy-cyclosporin] | 0.15 (≈ 0.119 µM) | – | – | – | 1 | –
C/C=C/C[C@@H](C)[C@@H](O)[C@H]1C(=O)N[C@@H](CC)C(=O)N(C)C(OC)C(=O)N(C)[C@@H](CC(C)C)C(=O)N[C@@H](C(C)C)C(=O)N(C)[C@@H](CC(C)C)C(=O)N[C@@H](C)C(=O)N[C@H](C)C(=O)N(C)[C@@H](CC(C)C)C(=O)N(C)[C@@H](CC(C)C)C(=O)N(C)[C@@H](C(C)C)C(=O)N1C (some centres unmarked) [Example 14, 3-Methoxycyclosporin] | – | – | 10 | – | 0.6 | –
C/C=C/C[C@@H](C)[C@@H](O)[C@H]1C(=O)N[C@@H](CC)C(=O)N(C)[C@H](OC(C)(C)C)C(=O)N(C)[C@@H](CC(C)C)C(=O)N[C@@H](C(C)C)C(=O)N(C)[C@@H](CC(C)C)C(=O)N[C@@H](C)C(=O)N[C@H](C)C(=O)N(C)[C@@H](CC(C)C)C(=O)N(C)[C@@H](CC(C)C)C(=O)N(C)[C@@H](C(C)C)C(=O)N1C [Example 17, [D-Sar-(tert.-butoxy)^3]-cyclosporin] (HELM PEPTIDE1{[C/C=C/C[C@@H](C)[C@@H](O)[C@@H](C(=O)[*:2])N(C)[*:1]].[Abu].[CN([C@H](OC(C)(C)C)C(=O)[*:2])[*:1]].[meL].V.[meL].A.[dA].[meL].[meL].[meV]}$PEPTIDE1,PEPTIDE1,1:R1-11:R2$$$V2.0) | – | – | – | – | – | 18.9 ± 1.03
C=CCO[C@@H]1C(=O)N(C)[C@@H](CC(C)C)C(=O)N[C@@H](C(C)C)C(=O)N(C)[C@@H](CC(C)C)C(=O)N[C@@H](C)C(=O)N[C@H](C)C(=O)N(C)[C@@H](CC(C)C)C(=O)N(C)[C@@H](CC(C)C)C(=O)N(C)[C@@H](C(C)C)C(=O)N(C)[C@@H]([C@H](O)[C@H](C)C/C=C/C)C(=O)N[C@@H](CC)C(=O)N1C [Example 18, [D-Sar-(allyloxy)^3]-cyclosporin] (HELM PEPTIDE1{[C/C=C/C[C@@H](C)[C@@H](O)[C@@H](C(=O)[*:2])N(C)[*:1]].[Abu].[C=CCO[C@H](C(=O)[*:2])N(C)[*:1]].[meL].V.[meL].A.[dA].[meL].[meL].[meV]}$PEPTIDE1,PEPTIDE1,1:R1-11:R2$$$V2.0) | – | – | – | – | – | 10.2 ± 2.21

Continued, in another order:

IC50 (HIV) [µg/mL] | Relative IC50, i.e. IC50 (cyclosporin A)/IC50 (test compound) (cyclophilin) | SMILES | ED50, dose effective in reducing the joint swelling by 50% [1] [mg/kg] | IC50 (HIV; HIV-induced cytopathic effect on MT4 T cell line) [µg/mL] | Activity against T. gondii (IC50) [2] [µg/mL] | IC50 [3] [nM]
1 (≈ 0.754 µM) | 0.2 | C/C=C/C[C@@H](C)[C@@H](O)[C@H]1C(=O)N[C@@H](C(C)C)C(=O)N(C)C(Sc2ccccn2)C(=O)N(C)[C@@H](CC(C)C)C(=O)N[C@@H](C(C)C)C(=O)N(C)[C@@H](CC(C)C)C(=O)N[C@@H](C)C(=O)N[C@H](C)C(=O)N(C)[C@@H](CC(C)C)C(=O)N(C)[C@@H](CC(C)C)C(=O)N(C)[C@@H](C(C)C)C(=O)N1C (some centres unmarked) [Example 6, 3-(Pyridyl-2-thio)-2-valine-cyclosporin] (HELM PEPTIDE1{[C/C=C/C[C@@H](C)[C@@H](O)[C@@H](C(=O)[*:2])N(C)[*:1]].V.[CN(C(Sc1ccccn1)C(=O)[*:2])[*:1]].[meL].V.[meL].A.[dA].[meL].[meL].[meV]}$PEPTIDE1,PEPTIDE1,1:R1-11:R2$$$V2.0) | 25 | – | – | –
0.5 (≈ 0.381 µM) | 0.4 | C/C=C/C[C@@H](C)[C@@H](O)[C@H]1C(=O)N[C@@H](CC)C(=O)N(C)C(Sc2ccccc2)C(=O)N(C)[C@@H](CC(C)C)C(=O)N[C@@H](C(C)C)C(=O)N(C)[C@@H](CC(C)C)C(=O)N[C@@H](C)C(=O)N[C@H](C)C(=O)N(C)[C@@H](CC(C)C)C(=O)N(C)[C@@H](CC(C)C)C(=O)N(C)[C@@H](C(C)C)C(=O)N1C (some centres unmarked) [Example 8, 3-(Phenylthio)-cyclosporin A] (HELM PEPTIDE1{[C/C=C/C[C@@H](C)[C@@H](O)[C@@H](C(=O)[*:2])N(C)[*:1]].[Abu].[CN(C(Sc1ccccc1)C(=O)[*:2])[*:1]].[meL].V.[meL].A.[dA].[meL].[meL].[meV]}$PEPTIDE1,PEPTIDE1,1:R1-11:R2$$$V2.0) | 25 | – | – | –
– | 2 | C/C=C/C[C@@H](C)[C@@H](O)[C@H]1C(=O)N[C@@H](CC)C(=O)N(C)C(OCC)C(=O)N(C)[C@@H](CC(C)C)C(=O)N[C@@H](C(C)C)C(=O)N(C)[C@@H](CC(C)C)C(=O)N[C@@H](C)C(=O)N[C@H](C)C(=O)N(C)[C@@H](CC(C)C)C(=O)N(C)[C@@H](CC(C)C)C(=O)N(C)[C@@H](C(C)C)C(=O)N1C (some centres unmarked) [Example 15, 3-Ethoxycyclosporin] (HELM PEPTIDE1{[C/C=C/C[C@@H](C)[C@@H](O)[C@@H](C(=O)[*:2])N(C)[*:1]].[Abu].[CCOC(C(=O)[*:2])N(C)[*:1]].[meL].V.[meL].A.[dA].[meL].[meL].[meV]}$PEPTIDE1,PEPTIDE1,1:R1-11:R2$$$V2.0) | 15 | – | 0.6 | –
